Measurements as given in US20230045245A1, “HETEROCYCLIC COMPOUND OR SALT THEREOF, ACTIVE MATERIAL, ELECTROLYTIC SOLUTION AND REDOX FLOW BATTERY” (NIPPON KAYAKU KABUSHIKI KAISHA, priority 2020, published 2023).
Like-named read-outs stand apart in the source and are kept apart here.

Columns and labels:
[1] = Solubility to water calculated from UV-visible absorbance; details: for Solubility (%): saturated solution in water, diluted with standard buffer pH 6.86 (25° C.), absorbance at maximum absorption wavelength 300-550 nm, calibration curve
Method: (§1) The measurement of the absorbance used an ultraviolet-visible spectrometer (UV-1700, manufactured by Shimadzu Corp.). Solutions of known concentrations of a sample were prepared by using a standard buffer solution (manufactured by Fujifilm Wako Pure Chemical Corp., a neutral phosphate salt pH standard solution, pH: 6.86 (25° C.)), and the absorbances at the maximum absorption wavelength in the wavelength region of 300 nm to 550 nm were measured by the ultraviolet-visible spectrometer. A calibration curve was fabricated from the obtained absorbances and the concentrations. Then, a saturated solution of the sample was prepared by using water and was diluted by using the standard buffer solution. The absorbance at the maximum absorption wavelength was measured and the solubility (%) was calculated from the calibration curve. The density of the solution was assumed to be 1.0 g/cm^3 and the solubility (mol/L) was calculated.

[2] = pH 6.86
Method: as §1

[3] = solubility to water, calculated from solubility (%), density of the solution assumed to be 1.0 g/cm^3
[4] = water, thermodynamic from solid

## O=C1c2cccc(S(=O)(=O)[O-])c2C(=O)c2cccc(S(=O)(=O)[O-])c21.[Na+].[Na+] [9,10-anthraquinone-1,5-disulfonic acid (Na), reference compound]
[1]
  Solubility (%): 2.7%
[1]; [3]
  solubility: 70 mM

## O=C1c2cccc(S(=O)(=O)[O-])c2C(=O)c2c1cccc2S(=O)(=O)[O-].[K+].[K+] [9,10-anthraquinone-1,8-disulfonic acid (K), reference compound]
[1]
  Solubility (%): 0.2%
[1]; [3]
  solubility: 4 mM

## O=C1c2ccccc2C(=O)c2cc(S(=O)(=O)[O-])ccc21.[Na+] [9,10-anthraquinone-2-sulfonic acid (Na)]
[2]
  Solubility (%): 0.7%

## O=C1C(SCCCS(=O)(=O)[O-])=C(SCCCS(=O)(=O)[O-])C(=O)c2ccccc21.[K+].[K+] [formula (2-1)]
[1]
  Solubility (%): 36.6%
[1]; [4]
  solubility: 670 mM

## O=C([O-])COc1cc2c(c(OCC(=O)[O-])c1OCC(=O)[O-])C(=O)c1cc(OCC(=O)[O-])c(OCC(=O)[O-])c(OCC(=O)[O-])c1C2=O.[K+].[K+].[K+].[K+].[K+].[K+] [formula (3-2)]
[1]
  Solubility (%): 17.7%
[1]; [4]
  solubility: 200 mM

## O=C1c2ccccc2C(=O)c2c1cc(OCCCS(=O)(=O)[O-])c(OCCCS(=O)(=O)[O-])c2OCCCS(=O)(=O)[O-].[Na+].[Na+].[Na+] [formula (3-3)]
[1]
  Solubility (%): 35.3%
[1]; [4]
  solubility: 510 mM

## O=C1c2cc(OCCOCCOCCO)c(O)c(OCCOCCOCCO)c2C(=O)c2cc(OCCOCCOCCO)c(O)c(OCCOCCOCCO)c21 [formula (3-5)]
[1]
  Solubility (%): 41.8%
[1]; [4]
  solubility: 500 mM
